Measurements taken from patent US9938261B2, “Heterocyclic compounds and methods of use thereof” (AMBIT BIOSCIENCES CORPORATION, priority 2011, dated 2018).
pIC50, pKd: −log10 of the molar value.

Legend:
FLT3 = target: T1, FLT3 (Homo sapiens, UniProt P36888); assay: Competition binding assay, FLT3 Kd; conditions: competition binding
T1 construct: made in house
T1 sequence (P36888 27-993): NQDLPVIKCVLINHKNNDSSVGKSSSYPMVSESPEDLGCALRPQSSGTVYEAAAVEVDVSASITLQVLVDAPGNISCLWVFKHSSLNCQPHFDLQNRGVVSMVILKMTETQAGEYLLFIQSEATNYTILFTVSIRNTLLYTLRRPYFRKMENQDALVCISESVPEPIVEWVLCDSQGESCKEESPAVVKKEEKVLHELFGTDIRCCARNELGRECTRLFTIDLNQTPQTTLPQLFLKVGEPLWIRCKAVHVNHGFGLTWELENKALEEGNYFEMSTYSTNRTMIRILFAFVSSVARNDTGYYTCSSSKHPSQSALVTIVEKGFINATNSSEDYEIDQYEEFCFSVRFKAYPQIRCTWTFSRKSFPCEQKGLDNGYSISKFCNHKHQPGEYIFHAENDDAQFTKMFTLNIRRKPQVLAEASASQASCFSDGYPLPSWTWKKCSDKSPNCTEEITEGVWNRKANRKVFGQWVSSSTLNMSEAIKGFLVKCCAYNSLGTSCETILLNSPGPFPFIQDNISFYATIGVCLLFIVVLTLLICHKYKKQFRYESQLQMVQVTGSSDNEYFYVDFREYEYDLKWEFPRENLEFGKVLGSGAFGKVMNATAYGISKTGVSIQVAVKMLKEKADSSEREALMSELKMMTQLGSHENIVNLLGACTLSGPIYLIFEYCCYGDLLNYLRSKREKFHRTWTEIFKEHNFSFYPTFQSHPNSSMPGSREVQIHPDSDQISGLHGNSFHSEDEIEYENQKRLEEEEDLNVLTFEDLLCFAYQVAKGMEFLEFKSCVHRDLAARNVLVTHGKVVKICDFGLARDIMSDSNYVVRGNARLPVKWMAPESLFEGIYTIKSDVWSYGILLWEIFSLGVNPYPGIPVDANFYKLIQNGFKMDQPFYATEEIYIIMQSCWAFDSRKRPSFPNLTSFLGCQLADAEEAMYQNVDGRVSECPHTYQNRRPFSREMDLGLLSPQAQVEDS
How it was run: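 First, biotinylated affinity ligands were loaded onto streptavidin magnetic beads and blocked. Kinase, beads and compound were then equilibrated 1 hour at room temperature, washed, and eluted with non-biotinylated ligand. Eluted kinase was measured by qPCR, with Kd fitted from an eleven-point threefold dilution series.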

CSF1R = CSF1R (Homo sapiens, UniProt P07333); assay: HEK293 CSF1R phosphorylation MSD assay; assay type: cell-based; parameters: expressed in transfected cells; host or cells: HEK293; conditions: HEK293 cells, M-CSF stimulated CSF1R phosphorylation, MSD; read-out: HEK293 pCSF1R M-CSF MSD:IC50
CSF1R, sequence (P07333 20-972): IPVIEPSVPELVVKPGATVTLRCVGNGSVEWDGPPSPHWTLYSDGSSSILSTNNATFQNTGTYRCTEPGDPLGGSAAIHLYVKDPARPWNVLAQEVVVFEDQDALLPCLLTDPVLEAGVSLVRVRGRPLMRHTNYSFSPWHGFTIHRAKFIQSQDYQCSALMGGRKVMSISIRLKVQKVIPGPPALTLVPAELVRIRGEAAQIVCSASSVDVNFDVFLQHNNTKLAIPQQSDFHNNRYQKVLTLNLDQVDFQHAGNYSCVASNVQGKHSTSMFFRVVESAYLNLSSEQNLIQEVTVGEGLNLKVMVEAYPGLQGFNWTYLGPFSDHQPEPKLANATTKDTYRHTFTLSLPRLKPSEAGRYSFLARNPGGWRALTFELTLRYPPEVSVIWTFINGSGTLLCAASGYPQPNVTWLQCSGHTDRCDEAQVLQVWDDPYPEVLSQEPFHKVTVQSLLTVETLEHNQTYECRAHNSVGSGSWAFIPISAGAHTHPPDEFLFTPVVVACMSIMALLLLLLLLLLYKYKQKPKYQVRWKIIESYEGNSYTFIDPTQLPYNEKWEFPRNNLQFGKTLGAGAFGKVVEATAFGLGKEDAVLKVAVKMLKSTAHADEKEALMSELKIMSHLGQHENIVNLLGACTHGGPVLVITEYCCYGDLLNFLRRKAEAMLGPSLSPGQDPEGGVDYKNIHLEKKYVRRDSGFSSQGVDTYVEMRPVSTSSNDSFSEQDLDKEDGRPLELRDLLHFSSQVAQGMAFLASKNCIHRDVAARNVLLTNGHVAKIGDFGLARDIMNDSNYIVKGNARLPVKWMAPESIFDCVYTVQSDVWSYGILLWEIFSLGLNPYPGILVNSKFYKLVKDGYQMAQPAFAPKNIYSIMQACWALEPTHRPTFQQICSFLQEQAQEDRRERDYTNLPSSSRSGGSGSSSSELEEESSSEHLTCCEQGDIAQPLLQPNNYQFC
How it was run: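 Ligand-induced CSF1R autophosphorylation was measured by MSD sandwich assay: CSF1R-FKBP from lysates captured via FK506, anti-phosphotyrosine readout. Cells were exposed to compound for 2 h (9-point, half-log, 0.5% DMSO) before 5 min 50 ng/mL M-CSF. Reported IC50 is the mean of duplicate-plate IC50s relative to DMSO control.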

Row | Structure (SMILES) | pKd (FLT3) | pIC50 (CSF1R)
1 | OC[C@H]1CCCC[C@H]1Nc1nc2ccc(Cn3cnc4cc(Br)cnc43)cc2s1 [Example 136, ((1S,2R)-2-((6-((6-bromo-3H-imidazo[4,5-b]pyridin-3-yl)methyl)benzo[d]thiazol-2-yl)amino)cyclohexyl)methanol] | 5.30 to 6.00 | 6.70 to 7.30
2 | O[C@@H]1CCCC[C@H]1Nc1nc2ccc(Cn3cnc4cc(Cl)c(Cl)nc43)cc2s1 [Example 137, (1R,2R)-2-((6-((5,6-dichloro-3H-imidazo[4,5-b]pyridin-3-yl)methyl)benzo[d]thiazol-2-yl)amino)cyclohexanol] | 6.00 to 6.70 | ≥ 7.30
3 | CCOc1ccc2c(c1)ncn2Cc1ccc2nc(N[C@@H]3CCCC[C@H]3O)sc2c1 [Example 138, (1R,2R)-2-((6-((5-ethoxy-1H-benzo[d]imidazol-1-yl)methyl)benzo[d]thiazol-2-yl)amino)cyclohexanol] | 6.00 to 6.70 | ≥ 7.30
4 | N#Cc1cc2ncn(Cc3ccc4nc(N[C@@H]5CCCC[C@H]5O)sc4c3)c2nc1C#N [Example 139, 3-((2-(((1R,2R)-2-hydroxycyclohexyl)amino)benzo[d]thiazol-6-yl)methyl)-3H-imidazo[4,5-b]pyridine-5,6-dicarbonitrile] | 6.00 to 6.70 | 6.30 to 6.70
5 | N#Cc1cnc2c(c1)ncn2Cc1ccc2nc(N[C@@H]3CCCC[C@H]3CO)sc2c1 [Example 140, 3-((2-(((1R,2R)-2-(hydroxymethyl)cyclohexyl)amino)benzo[d]thiazol-6-yl)methyl)-3H-imidazo[4,5-b]pyridine-6-carbonitrile] | < 5.30 | 6.30 to 6.70
6 | O[C@@H]1CCCC[C@H]1Nc1nc2ccc(Cn3cnc4cc(-n5cccn5)cnc43)cc2s1 [Example 141, (1R,2R)-2-((6-((6-(1H-pyrazol-1-yl)-3H-imidazo[4,5-b]pyridine-3-yl)methyl)benzo[d]thiazol-2-yl)amino)cyclohexanol] | 6.00 to 6.70 | ≥ 7.30
7 | O[C@@H]1CCCC[C@H]1Nc1nc2ccc(Cc3cnc4cccnn34)cc2o1 [Example 142, (1R,2R)-2-((6-(imidazo[1,2-b]pyridazin-3-ylmethyl)benzo[d]oxazol-2-yl)amino)cyclohexanol] | ≥ 6.70 | ≥ 7.30
8 | CNC(=O)c1ccc2ncc(Cc3ccc4nc(N[C@@H]5CCCC[C@H]5O)sc4c3)n2n1 [Example 143, 3-((2-(((1R,2R)-2-hydroxycyclohexyl)amino)benzo[d]thiazol-6-yl)methyl)-N-methylimidazo[1,2-b]pyridazine-6-carboxamide] | 5.30 to 6.00 | 6.30 to 6.70
9 | OCc1ccc2ncc(Cc3ccc4nc(N[C@@H]5CCCC[C@H]5O)sc4c3)n2n1 [Example 144, (1R,2R)-2-((6-((6-(hydroxymethyl)imidazo[1,2-b]pyridazin-3-yl)methyl)benzo[d]thiazol-2-yl)amino)cyclohexanol] | 6.00 to 6.70 | 6.70 to 7.30
10 | O[C@@H]1CCCC[C@H]1Nc1nc2ccc(Cn3cnc4cc(-n5cncn5)cnc43)cc2s1 [Example 145, (1R,2R)-2-((6-((6-(1H-1,2,4-triazol-1-yl)-3H-imidazo[4,5-b]pyridin-3-yl)methyl)benzo[d]thiazol-2-yl)amino)cyclohexanol] | 5.30 to 6.00 | ≥ 7.30
11 | O[C@@H]1CCCC[C@H]1Nc1nc2ccc(Cn3cnc4cc(I)cnc43)cc2s1 [Example 146, (1R,2R)-2-((6-((6-iodo-3H-imidazo[4,5-b]pyridin-3-yl)methyl)benzo[d]thiazol-2-yl)amino)cyclohexanol] | 6.00 to 6.70 | ≥ 7.30
12 | Oc1ccc2c(c1)ncn2Cc1ccc2nc(N[C@@H]3CCCC[C@H]3O)sc2c1 [Example 147, 1-((2-(((1R,2R)-2-hydroxycyclohexyl)amino)benzo[d]thiazol-6-yl)methyl)-1H-benzo[d]imidazol-5-ol] | 6.00 to 6.70 | ≥ 7.30
13 | O[C@@H]1CCCC[C@H]1Nc1nc2ccc(Cn3cnc4cc(F)cc(F)c43)cc2s1 [Example 148, (1R,2R)-2-((6-((5,7-difluoro-1H-benzo[d]imidazol-1-yl)methyl)benzo[d]thiazol-2-yl)amino)cyclohexanol] | 5.30 to 6.00 | 6.70 to 7.30
14 | O[C@@H]1CCCC[C@H]1Nc1nc2ccc(Cn3cnc4cc(OC(F)(F)F)ccc43)cc2s1 [Example 149, (1R,2R)-2-((6-((5-(trifluoromethoxy)-1H-benzo[d]imidazol-1-yl)methyl)benzo[d]thiazol-2-yl)amino)cyclohexanol] | 5.30 to 6.00 | 6.30 to 6.70
15 | COc1ccc2ncc(Cc3ccc4nc(N[C@@H]5CCCC[C@H]5O)sc4c3)n2n1 [Example 150, (1R,2R)-2-((6-((6-methoxyimidazo[1,2-b]pyridazin-3-yl)methyl)benzo[d]thiazol-2-yl)amino)cyclohexanol] | 6.00 to 6.70 | 6.70 to 7.30
16 | COc1ccc2c(c1)ncn2Cc1ccc2nc(N[C@@H]3CCCC[C@H]3O)oc2c1 [Example 151, (1R,2R)-2-((6-((5-methoxy-1H-benzo[d]imidazol-1-yl)methyl)benzo[d]oxazol-2-yl)amino)cyclohexanol] | 6.00 to 6.70 | ≥ 7.30
17 | COc1ccc2ncn(Cc3ccc4nc(N[C@@H]5CCCC[C@H]5O)oc4c3)c2c1 [Example 152, (1R,2R)-2-((6-((6-methoxy-1H-benzo[d]imidazol-1-yl)methyl)benzo[d]oxazol-2-yl)amino)cyclohexanol] | ≥ 6.70 | ≥ 7.30
18 | COCCOc1ccn2c(Cc3ccc4nc(N[C@@H]5CCCC[C@H]5O)sc4c3)cnc2c1 [Example 153, (1R,2R)-2-((6-((7-(2-methoxyethoxy)imidazo[1,2-a]pyridin-3-yl)methyl)benzo[d]thiazol-2-yl)amino)cyclohexanol] | 5.30 to 6.00 | ≥ 7.30
19 | O[C@@H]1CCCC[C@H]1Nc1nc2cc(F)c(Cn3cnc4cccnc43)cc2s1 [Example 154, (1R,2R)-2-((6-((3H-imidazo[4,5-b]pyridin-3-yl)methyl)-5-fluorobenzo[d]thiazol-2-yl)amino)cyclohexanol] | 5.30 to 6.00 | 6.70 to 7.30
20 | O[C@@H]1CCCC[C@H]1Nc1nc2ccc(Cc3cnc4ccc(N5CCOCC5)nn34)cc2s1 [Example 155, (1R,2R)-2-((6-((6-morpholinoimidazo[1,2-b]pyridazin-3-yl)methyl)benzo[d]thiazol-2-yl)amino)cyclohexanol] | ≥ 6.70 | ≥ 7.30
21 | O[C@@H]1CCCC[C@H]1Nc1nc2c(Cl)cc(Cc3cnc4ccc(N5CCOCC5)nn34)cc2s1 [Example 156, (1R,2R)-2-((4-chloro-6-((6-morpholinoimidazo[1,2-b]pyridazin-3-yl)methyl)benzo[d]thiazol-2-yl)amino)cyclohexanol] | 5.30 to 6.00 | 6.30 to 6.70
22 | O[C@@H]1CCCC[C@H]1Nc1nc2ccc(Cc3cnc4sccn34)cc2s1 [Example 157, (1R,2R)-2-((6-(imidazo[2,1-b]thiazol-5-ylmethyl)benzo[d]thiazol-2-yl)amino)cyclohexanol] | < 5.30 | < 6.30
23 | O[C@@H]1CCCC[C@H]1Nc1nc2ccc(Cc3cnc4ccc(Cl)nn34)cc2s1 [Example 158, (1R,2R)-2-((6-((6-chloroimidazo[1,2-b]pyridazin-3-yl)methyl)benzo[d]thiazol-2-yl)amino)cyclohexanol] | 6.00 to 6.70 | ≥ 7.30
24 | O[C@@H]1CCCC[C@H]1Nc1nc2ccc(Cc3cnc4ccc(-n5cccn5)cn34)cc2s1 [Example 159, (1R,2R)-2-((6-((6-(1H-pyrazol-1-yl)imidazo[1,2-a]pyridin-3-yl)methyl)benzo[d]thiazol-2-yl)amino)cyclohexanol] | 5.30 to 6.00 | 6.30 to 6.70
25 | O[C@@H]1CCCC[C@H]1Nc1nc2ccc(Cn3cnc4cc(-n5cccn5)ccc43)cc2s1 [Example 160, (1R,2R)-2-((6-((5-(1H-pyrazol-1-yl)-1H-benzo[d]imidazol-1-yl)methyl)benzo[d]thiazol-2-yl)amino)cyclohexanol] | 6.00 to 6.70 | ≥ 7.30
26 | O[C@@H]1CCCC[C@H]1Nc1nc2ccc(Cn3cnc4cc(-n5cncn5)ccc43)cc2s1 [Example 161, (1R,2R)-2-((6-((5-(1H-1,2,4-triazol-1-yl)-1H-benzo[d]imidazol-1-yl)methyl)benzo[d]thiazol-2-yl)amino)cyclohexanol] | 5.30 to 6.00 | ≥ 7.30
